Earlier results in patent US20220105100A1, “SAFE BRINZOLAMIDE AND BRIMONIDINE COMPOSITIONS WITH ENHANCED BENZALKONIUM CHLORIDE CONTENT” (Somerset Therapeutics, LLC, priority 2020, published 2022).

Conditions: laboratory, experimental, and clinical studies

Q: With benzalkonium chloride as the substance, how does the ophthalmological side effects read?
A: Its ophthalmological side effects is “causing tear film instability, loss of goblet cells, conjunctival squamous metaplasia and apoptosis, disruption of the conical epithelium barrier, and damage to deeper ocular tissues”.
